Experiments:
Assay type in all cases: cell-based
MYB mRNA [1] = experiment: Splicing RT-qPCR assay (THP), Table 2A; conditions: Table 2A (THP); for AC50: AJ mRNA increase, read-out: MYB AJ (increase in alternative junction mRNA, AC50); for IC50: CJ mRNA decrease, read-out: MYB CJ (decrease in canonical junction mRNA, IC50)
HTT mRNA [2] = experiment: Splicing RT-qPCR assay (THP), Table 2A; conditions: Table 2A (THP); for AC50: AJ mRNA increase, read-out: HTT AJ (increase in alternative junction mRNA, AC50); for IC50: CJ mRNA decrease, read-out: HTT CJ (decrease in canonical junction mRNA, IC50)
MYB mRNA [3] = experiment: Splicing RT-qPCR assay, canonical (CJ) and alternative (AJ) junction mRNA, K562 cells; conditions: Homo sapiens, K562.3 cells, 24 hours; for AC50: read-out: MYB AJ (AC50, increase in AJ mRNA); for IC50: read-out: MYB CJ (IC50, decrease in CJ mRNA)
How it was run: (§1)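 K562 cells were treated for 24 h at 37 °C with an 11-point 3-fold dilution series (top 10 uM final, DMSO ≤0.25%), then lysed for one-step RT-qPCR of canonical and alternative junctions. ΔΔCt was taken against GAPDH or GUSB and DMSO, converted to RQ by 2^(−ΔΔCt), then to % response.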

HTT mRNA [4] = experiment: as above; conditions: Homo sapiens, K562.3 cells, 24 hours; for AC50: read-out: HTT AJ (AC50, increase in AJ mRNA); for IC50: read-out: HTT CJ (IC50, decrease in CJ mRNA)
How it was run: as §1

Compound	IC50 (MYB mRNA [1])	IC50 (HTT mRNA [2])	IC50 (MYB mRNA [3])	IC50 (HTT mRNA [4])	AC50 (MYB mRNA [1])	AC50 (HTT mRNA [2])	AC50 (MYB mRNA [3])	AC50 (HTT mRNA [4])
Cc1cn2nc(NC(=O)c3ccc(N4CCC(NC5CC5)CC4)c4cn(C)nc34)cc(C)c2n1 [Compound 187, 4-[4-(cyclopropylamino)-1-piperidyl]-N-(2,8-dimethylimidazo-[1,2-b]pyridazin-6-yl)-2-methyl-indazole-7-carboxamide]	100 to 1000 nM	100 to 1000 nM	100 to 1000 nM	100 to 1000 nM	100 to 1000 nM	100 to 1000 nM	100 to 1000 nM	100 to 1000 nM
CCNC1CCN(c2ccc(C(=O)Nc3cc(F)c4nc(C)c(C)n4c3)c3nn(C)cc23)CC1 [Compound 188, 4-[4-(ethylamino)-1-piperidyl]-N-(8-fluoro-2,3-dimethyl-imidazo[1,2-a]pyridin-6-yl)-2-methyl-indazole-7-carboxamide]	> 10000 nM	> 10000 nM	> 10000 nM	> 10000 nM	> 10000 nM	> 10000 nM	> 10000 nM	> 10000 nM
Cc1cn2cc(NC(=O)c3ccc(N4CCC(NC5CC5)CC4)c4cn(C)nc34)nc2c(C)n1 [Compound 297, 4-[4-(cyclopropylamino)-1-piperidyl]-N-(6,8-dimethylimidazo[1,2-a]pyrazin-2-yl)-2-methyl-indazole-7-carboxamide]	1000 to 10000 nM	> 10000 nM	100 to 1000 nM	> 10000 nM	100 to 1000 nM	> 10000 nM	100 to 1000 nM	> 10000 nM
CCNC1CCN(c2ccc(C(=O)Nc3cc(F)c4nc(C(C)C)cn4c3)c3nn(C)cc23)CC1 [Compound 177, 4-[4-(ethylamino)-1-piperidyl]-N-(8-fluoro-2-isopropyl-imidazo[1,2-a]pyridin-6-yl)-2-methyl-indazole-7-carboxamide]	1000 to 10000 nM	> 10000 nM	> 10000 nM	1000 to 10000 nM	> 10000 nM	> 10000 nM	> 10000 nM	> 10000 nM
CCNC1CCN(c2ccc(C(=O)Nc3cc(F)c4nc(C)oc4c3)c3nn(C)cc23)CC1 [Compound 200, 4-(4-(ethylamino)piperidin-1-yl)-N-(4-fluoro-2-methylbenzo[d]-oxazol-6-yl)-2-methyl-2H-indazole-7-carboxamide]	< 100 nM	100 to 1000 nM	100 to 1000 nM	100 to 1000 nM	< 100 nM	1000 to 10000 nM	< 100 nM	1000 to 10000 nM
COc1c(NC(=O)c2c(F)cc(N3CCC(NC4CC4)CC3)c3cn(C)nc23)cn2cc(C)nc2c1F [Compound 207, 4-[4-(cyclopropylamino)-1-piperidyl]-6-fluoro-N-(8-fluoro-7-methoxy-2-methyl-imidazo[1,2-a]pyridin-6-yl)-2-methyl-indazole-7-carboxamide]	< 100 nM	< 100 nM	< 100 nM	< 100 nM	< 100 nM	< 100 nM	< 100 nM	< 100 nM
CCNC1CCN(c2ccc(C(=O)Nc3cn4cc(C)nc(C)c4n3)c3nn(C)cc23)CC1 [Compound 181, N-(6,8-dimethylimidazo [1,2-a]pyrazin-2-yl)-4-[4-(ethylamino)-1-piperidyl]-2-methyl-indazole-7-carboxamide]	100 to 1000 nM	1000 to 10000 nM	100 to 1000 nM	100 to 1000 nM	100 to 1000 nM	1000 to 10000 nM	100 to 1000 nM	100 to 1000 nM
Cc1cn2cc(NC(=O)c3ccc(N4CCC(NC5CC5(C)C)CC4)c4cn(C)nc34)cc(F)c2n1 (centres unmarked) [Compound 205, 4-(4-((2,2-dimethylcyclopropyl)amino)piperidin-1-yl)-N-(8-fluoro-2-methylimidazo[1,2-a]pyridin-6-yl)-2-methyl-2H-indazole-7-carboxamide]	< 100 nM	100 to 1000 nM	< 100 nM	1000 to 10000 nM	< 100 nM	100 to 1000 nM	< 100 nM	1000 to 10000 nM
CCNC1CCN(c2ccc(C(=O)Nc3cc(F)c4nc(CC)cn4c3)c3nn(C)cc23)CC1 [Compound 201, 4-[4-(ethylamino)-1-piperidyl]-N-(2-ethyl-8-fluoro-imidazo[1,2-a]pyridin-6-yl)-2-methyl-indazole-7-carboxamide]	1000 to 10000 nM	1000 to 10000 nM	1000 to 10000 nM	1000 to 10000 nM	1000 to 10000 nM	1000 to 10000 nM	1000 to 10000 nM	1000 to 10000 nM
Cc1cn2cc(NC(=O)c3c(F)cc(N4CC[C@H](NCC56CC(CO5)C6)C4)c4cn(C)nc34)cc(F)c2n1 [Compound 157, 6-fluoro-N-(8-fluoro-2-methyl-imidazo[1,2-a]pyridin-6-yl)-2-methyl-4-[(3S)-3-(2-oxabicyclo[2.1.1]hexan-1-ylmethylamino)pyrrolidin-1-yl]indazole-7-carboxamide]	< 100 nM	> 10000 nM	100 to 1000 nM	> 10000 nM	< 100 nM	> 10000 nM	< 100 nM	> 10000 nM

Now from value to compound, other results behind:

IC50 (MYB mRNA [1])	IC50 (HTT mRNA [2])	IC50 (MYB mRNA [3])	IC50 (HTT mRNA [4])	Compound	AC50 (MYB mRNA [1])	AC50 (HTT mRNA [2])	AC50 (MYB mRNA [3])	AC50 (HTT mRNA [4])
> 10000 nM	> 10000 nM	> 10000 nM	> 10000 nM	CCNC1CCN(c2ccc(C(=O)Nc3cc(F)c4nc(C)cn4c3)c3c2nnn3C)CC1 [Compound 198, 4-(4-(ethylamino)piperidin-1-yl)-N-(8-fluoro-2-methylimidazo[1,2-a]pyridin-6-yl)-1-methyl-1H-benzo[d][1,2,3]triazole-7-carboxamide 2,2,2-trifluoroacetate]	> 10000 nM	> 10000 nM	> 10000 nM	> 10000 nM
> 10000 nM	> 10000 nM	> 10000 nM	> 10000 nM	CN[C@H]1CCN(c2ccc(C(=O)Nc3cc(F)c4nc(C)cn4c3)c3c2nnn3C)C1 [Compound 160, N-(8-fluoro-2-methyl-imidazo[1,2-a]pyridin-6-yl)-3-methyl-7-[(3S)-3-(methylamino)-pyrrolidin-1-yl]benzotriazole-4-carboxamide]	> 10000 nM	> 10000 nM	> 10000 nM	> 10000 nM
1000 to 10000 nM	> 10000 nM	100 to 1000 nM	> 10000 nM	CN[C@H]1CCN(c2ccc(C(=O)Nc3cc(F)c4nc(C)cn4c3)c3nn(C)cc23)[C@@H]1C (single isomer, unassigned) [Compound 154]	100 to 1000 nM	> 10000 nM	100 to 1000 nM	> 10000 nM
100 to 1000 nM	1000 to 10000 nM	100 to 1000 nM	100 to 1000 nM	CN[C@H]1C[C@@H](C)N(c2ccc(C(=O)Nc3cc(F)c4nc(C)cn4c3)c3nn(C)cc23)C1 (single isomer, unassigned) [Compound 128]	100 to 1000 nM	1000 to 10000 nM	100 to 1000 nM	1000 to 10000 nM
100 to 1000 nM	> 10000 nM	100 to 1000 nM	> 10000 nM	COCCN[C@@H]1CCN(c2ccc(C(=O)Nc3cc(F)c4nc(C)cn4c3)c3nn(C)cc23)C1 [Compound 113, N-(8-fluoro-2-methyl-imidazo[1,2-a]pyridin-6-yl)-4-[(3R)-3-(2-methoxyethylamino)pyrrolidin-1-yl]-2-methyl-indazole-7-carboxamide]	100 to 1000 nM	> 10000 nM	100 to 1000 nM	> 10000 nM
100 to 1000 nM	> 10000 nM	100 to 1000 nM	1000 to 10000 nM	Cc1cn2cc(NC(=O)c3ccc(N4C[C@@H](C)N[C@@H](C)C4)c4[nH]cnc34)cc(F)c2n1 [Compound 220, 7-[(3R,5S)-3,5-dimethylpiperazin-1-yl]-N-(8-fluoro-2-methyl-imidazo[1,2-a]pyridin-6-yl)-1H-1,3-benzodiazole-4-carboxamide]	100 to 1000 nM	1000 to 10000 nM	100 to 1000 nM	> 10000 nM
> 10000 nM	> 10000 nM	> 10000 nM	> 10000 nM	Cc1cn2cc(NC(=O)c3ccc(N4CCNCC4=O)c4[nH]cnc34)cc(F)c2n1 [Compound 257, N-(8-fluoro-2-methyl-imidazo[1,2-a]-pyridin-6-yl)-7-(2-oxopiperazin-1-yl)-1H-benzimidazole-4-carboxamide]	> 10000 nM	> 10000 nM	> 10000 nM	> 10000 nM
100 to 1000 nM	100 to 1000 nM	100 to 1000 nM	100 to 1000 nM	CCNC1CCN(c2ccc(C(=O)Nc3cc(F)c4nc(C)cn4c3)c3nn(C)nc23)CC1 [Compound 196, 7-[4-(ethylamino)piperidin-1-yl]-N-(8-fluoro-2-methyl-imidazo[1,2-a]pyridin-6-yl)-2-methyl-1,2,3-benzotriazole-4-carboxamide]	100 to 1000 nM	100 to 1000 nM	100 to 1000 nM	100 to 1000 nM
> 10000 nM	> 10000 nM	> 10000 nM	> 10000 nM	Cc1cn2cc(NC(=O)c3ccc(N4C[C@H](C)N[C@@H](C)C4)c4[nH]nnc34)cc(F)c2n1 [Compound 242, 7-[(3S,5S)-3,5-dimethylpiperazin-1-yl]-N-(8-fluoro-2-methyl-imidazo[1,2-a]pyridin-6-yl)-1H-benzotriazole-4-carboxamide]	> 10000 nM	> 10000 nM	> 10000 nM	> 10000 nM
